From the supplement of paper PMC11451515

Tested on: NOMO1
Assay: cell viability relative to DMSO control; higher = less cytotoxic
Conditions: 48 h
Outline: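 Viability values are per-plate percentages of DMSO wells, with background from cell-free wells. Library compounds in DMSO were pin-dosed, in an 11-point threefold series from 47 μM to 0.79 nM, onto NOMO1 or SEM (500 cells/well) or P12-Ichikawa (1000 cells/well) leukemia cells in 1536-well plates (5 μl). Those cells had been adapted for at least four passages in each medium, and CellTiter-Glo One luminescence was read after 48 h at 37°C.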

[1] = HPLM + 10% dialyzed FBS, 0.000781 µM
[2] = HPLM + 10% dialyzed FBS, 0.00234 µM
[3] = HPLM + 10% dialyzed FBS, 0.00702 µM
[4] = HPLM + 10% dialyzed FBS, 0.0211 µM
[5] = HPLM + 10% dialyzed FBS, 0.0632 µM
[6] = HPLM + 10% dialyzed FBS, 0.19 µM
[7] = HPLM + 10% dialyzed FBS, 0.569 µM
[8] = HPLM + 10% dialyzed FBS, 1.71 µM
[9] = HPLM + 10% dialyzed FBS, 5.12 µM
[10] = HPLM + 10% dialyzed FBS, 15.4 µM
[11] = HPLM + 10% dialyzed FBS, 46.1 µM
[12] = RPMI 5 mM glucose + 10% dialyzed FBS, 0.000781 µM
[13] = RPMI 5 mM glucose + 10% dialyzed FBS, 0.00234 µM
[14] = RPMI 5 mM glucose + 10% dialyzed FBS, 0.00702 µM
[15] = RPMI 5 mM glucose + 10% dialyzed FBS, 0.0211 µM
[16] = RPMI 5 mM glucose + 10% dialyzed FBS, 0.0632 µM
[17] = RPMI 5 mM glucose + 10% dialyzed FBS, 0.19 µM
[18] = RPMI 5 mM glucose + 10% dialyzed FBS, 0.569 µM
[19] = RPMI 5 mM glucose + 10% dialyzed FBS, 1.71 µM
[20] = RPMI 5 mM glucose + 10% dialyzed FBS, 5.12 µM
[21] = RPMI 5 mM glucose + 10% dialyzed FBS, 15.4 µM
[22] = RPMI 5 mM glucose + 10% dialyzed FBS, 46.1 µM
[23] = RPMI 5 mM glucose + 10% FBS, 0.000781 µM
[24] = RPMI 5 mM glucose + 10% FBS, 0.00234 µM
[25] = RPMI 5 mM glucose + 10% FBS, 0.00702 µM
[26] = RPMI 5 mM glucose + 10% FBS, 0.0211 µM
[27] = RPMI 5 mM glucose + 10% FBS, 0.0632 µM
[28] = RPMI 5 mM glucose + 10% FBS, 0.19 µM
[29] = RPMI 5 mM glucose + 10% FBS, 0.569 µM
[30] = RPMI 5 mM glucose + 10% FBS, 1.71 µM
[31] = RPMI 5 mM glucose + 10% FBS, 5.12 µM
[32] = RPMI 5 mM glucose + 10% FBS, 15.4 µM
[33] = RPMI 5 mM glucose + 10% FBS, 46.1 µM

OC(c1cc(C(F)(F)F)nc2c(C(F)(F)F)cccc12)C1CCCCN1 (configuration not stated)
cell viability [1]: 117% | cell viability [2]: 124% | cell viability [3]: 115% | cell viability [4]: 127% | cell viability [5]: 146% | cell viability [6]: 150% | cell viability [7]: 158% | cell viability [8]: 142% | cell viability [9]: 143% | cell viability [10]: 114% | cell viability [11]: 8.46%

CCN(CC)CCCCNc1ncc2cc(-c3cc(OC)cc(OC)c3)c(NC(=O)NC(C)(C)C)nc2n1
cell viability [1]: 122% | cell viability [2]: 136% | cell viability [3]: 125% | cell viability [4]: 113% | cell viability [5]: 111% | cell viability [6]: 108% | cell viability [7]: 94.8% | cell viability [8]: 86.8% | cell viability [9]: 104% | cell viability [10]: 83.8% | cell viability [11]: 33.2%

C[C@H]1COC2=C3N1\C=C(C(O)=O)/C(=O)C3=CC(=C2N4CCN(C)CC4)F
cell viability [1]: 124% | cell viability [2]: 123% | cell viability [3]: 128% | cell viability [4]: 114% | cell viability [5]: 122% | cell viability [6]: 106% | cell viability [7]: 113% | cell viability [8]: 108% | cell viability [9]: 94.8% | cell viability [10]: 85.9% | cell viability [11]: 61% | cell viability [12]: 122% | cell viability [13]: 112% | cell viability [14]: 127% | cell viability [15]: 124% | cell viability [16]: 124% | cell viability [17]: 115% | cell viability [18]: 112% | cell viability [19]: 112% | cell viability [20]: 98.1% | cell viability [21]: 98.7% | cell viability [22]: 72.9%

COc1cc(OC2CCN(C)CC2)ccc1Nc1ncc2c(n1)n(C1CCCC1)c(=O)n2C
cell viability [1]: 80.9% | cell viability [2]: 86.8% | cell viability [3]: 107% | cell viability [4]: 85.9% | cell viability [5]: 96.8% | cell viability [6]: 90.8% | cell viability [7]: 103% | cell viability [8]: 108% | cell viability [9]: 93.6% | cell viability [10]: 87.7% | cell viability [11]: 2.59% | cell viability [23]: 82.7% | cell viability [24]: 82.5% | cell viability [25]: 75.4% | cell viability [26]: 84.8% | cell viability [27]: 78.1% | cell viability [28]: 92.8% | cell viability [29]: 83.2% | cell viability [30]: 76.5% | cell viability [31]: 81.1% | cell viability [32]: 76.9% | cell viability [33]: 18.4% | cell viability [12]: 76.6% | cell viability [13]: 88.9% | cell viability [14]: 90.4% | cell viability [15]: 83.6% | cell viability [16]: 81.2% | cell viability [17]: 95.2% | cell viability [18]: 91.6% | cell viability [19]: 100% | cell viability [20]: 91.7% | cell viability [21]: 60.4% | cell viability [22]: 16.1%

COc1ccc([S+](=O)([O-])N(C(C)=O)c2ccccc2/C=C/c2cc[n+]([O-])cc2)cc1
cell viability [23]: 116% | cell viability [24]: 106% | cell viability [25]: 129% | cell viability [26]: 114% | cell viability [27]: 105% | cell viability [28]: 112% | cell viability [29]: 130% | cell viability [30]: 44.5% | cell viability [31]: 21% | cell viability [32]: 24.4% | cell viability [33]: 22.6% | cell viability [12]: 108% | cell viability [13]: 111% | cell viability [14]: 116% | cell viability [15]: 126% | cell viability [16]: 115% | cell viability [17]: 121% | cell viability [18]: 122% | cell viability [19]: 46.4% | cell viability [20]: 25.3% | cell viability [21]: 26.8% | cell viability [22]: 28.4%

c1ccc2[nH]c(-c3cscn3)nc2c1
cell viability [1]: 122% | cell viability [2]: 113% | cell viability [3]: 136% | cell viability [4]: 121% | cell viability [5]: 133% | cell viability [6]: 135% | cell viability [7]: 122% | cell viability [8]: 133% | cell viability [9]: 107% | cell viability [10]: 102% | cell viability [11]: 90.8%

NC\1=N\C(=O)N(\C=C1)[C@@H]2O[C@H](CO)[C@@H](O)[C@@H]2O
cell viability [1]: 76.3% | cell viability [2]: 79.8% | cell viability [3]: 47.7% | cell viability [4]: 62.9% | cell viability [5]: 33.9% | cell viability [6]: 30.6% | cell viability [7]: 31.5% | cell viability [8]: 25.8% | cell viability [9]: 20.3% | cell viability [10]: 20% | cell viability [11]: 6.26% | cell viability [23]: 76% | cell viability [24]: 83.3% | cell viability [25]: 83.1% | cell viability [26]: 74.8% | cell viability [27]: 54.1% | cell viability [28]: 24.4% | cell viability [29]: 25.1% | cell viability [30]: 21.3% | cell viability [31]: 14.6% | cell viability [32]: 8.18% | cell viability [33]: 3.59% | cell viability [12]: 66.8% | cell viability [13]: 68.6% | cell viability [14]: 53.4% | cell viability [15]: 49.9% | cell viability [16]: 29.8% | cell viability [17]: 18.3% | cell viability [18]: 25.8% | cell viability [19]: 14.7% | cell viability [20]: 16.6% | cell viability [21]: 12.6% | cell viability [22]: 7.75%

Cn1cnc2c(F)c(Nc3ccc(Br)cc3F)c(C(=O)NOCCO)cc21
cell viability [1]: 91.4% | cell viability [2]: 83.3% | cell viability [3]: 95.9% | cell viability [4]: 27.1% | cell viability [5]: 62.4% | cell viability [6]: 56.4% | cell viability [7]: 57.7% | cell viability [8]: 41.4% | cell viability [9]: 34.3% | cell viability [10]: 40% | cell viability [11]: 35.3% | cell viability [23]: 83.3% | cell viability [24]: 80.2% | cell viability [25]: 82.4% | cell viability [26]: 16.4% | cell viability [27]: 75.5% | cell viability [28]: 66.2% | cell viability [29]: 50.2% | cell viability [30]: 42.6% | cell viability [31]: 37.5% | cell viability [32]: 31.2% | cell viability [33]: 36.5% | cell viability [12]: 77.1% | cell viability [13]: 90.2% | cell viability [14]: 98.7% | cell viability [15]: 37.9% | cell viability [16]: 75.3% | cell viability [17]: 49.6% | cell viability [18]: 45.4% | cell viability [19]: 40.5% | cell viability [20]: 39.6% | cell viability [21]: 34.5% | cell viability [22]: 34.6%

C[C@]12CC[C@H]3[C@@H](CC[C@H]4NC(=O)\C=C/[C@]34C)[C@@H]1CC[C@@H]2C(=O)NC5=CC(=CC=C5C(F)(F)F)C(F)(F)F
cell viability [1]: 123% | cell viability [2]: 123% | cell viability [3]: 122% | cell viability [4]: 118% | cell viability [5]: 123% | cell viability [6]: 114% | cell viability [7]: 101% | cell viability [8]: 118% | cell viability [9]: 107% | cell viability [10]: 96.1% | cell viability [11]: 94.7% | cell viability [23]: 117% | cell viability [24]: 125% | cell viability [25]: 114% | cell viability [26]: 100% | cell viability [27]: 111% | cell viability [28]: 109% | cell viability [29]: 112% | cell viability [30]: 112% | cell viability [31]: 107% | cell viability [32]: 96.3% | cell viability [33]: 98.8% | cell viability [12]: 105% | cell viability [13]: 120% | cell viability [14]: 105% | cell viability [15]: 118% | cell viability [16]: 104% | cell viability [17]: 111% | cell viability [18]: 111% | cell viability [19]: 103% | cell viability [20]: 94.9% | cell viability [21]: 103% | cell viability [22]: 96.9%

COc1ccccc1OCC(O)COC(N)=O (configuration not stated)
cell viability [1]: 79.5% | cell viability [2]: 104% | cell viability [3]: 108% | cell viability [4]: 119% | cell viability [5]: 127% | cell viability [6]: 116% | cell viability [7]: 122% | cell viability [8]: 119% | cell viability [9]: 130% | cell viability [10]: 125% | cell viability [11]: 6.3% | cell viability [23]: 102% | cell viability [24]: 98.1% | cell viability [25]: 102% | cell viability [26]: 113% | cell viability [27]: 109% | cell viability [28]: 98% | cell viability [29]: 119% | cell viability [30]: 103% | cell viability [31]: 114% | cell viability [32]: 119% | cell viability [33]: 113% | cell viability [12]: 94.7% | cell viability [13]: 109% | cell viability [14]: 111% | cell viability [15]: 105% | cell viability [16]: 116% | cell viability [17]: 119% | cell viability [18]: 102% | cell viability [19]: 107% | cell viability [20]: 122% | cell viability [21]: 108% | cell viability [22]: 100%
